Test results published in the NIST ThermoML archive (doi:10.1021/acs.jced.6b00813).
Numbers after ± are expanded uncertainties.

Columns and labels:
[1] = wn = mass fraction of the nth substance listed; details: 101.3 kPa, Liquid, Pycnometric method
[2] = Crystal; Titration method

With `O` [water] + O=[PH2][O-].O=[PH2][O-].[Ca+2] the mass density ([1]; 273.15 K, w2 = 0) was 999 ± 4 kg/m3.

Work on `O=[PH2][O-].[Na+]` [sodium phosphinate] + O yielded a mass density ([1]; 273.15 K, w1 = 0.4776) of 1381 ± 2 kg/m3.

`O` [water] gave a Normal melting temperature [2] of 0.00 ± 0.77 °C.

`O=[PH2][O-].O=[PH2][O-].[Ca+2]` [calcium hypophosphite] + O showed a mass density ([1]; 268.75 K, w1 = 0.1397) of 1133 ± 2 kg/m3, a mass density ([1]; 270.15 K, w1 = 0.0909) of 1089 ± 2 kg/m3 and a mass density ([1]; 271.4 K, w1 = 0.0476) of 1047 ± 2 kg/m3. For the same molecule, the mass density ([1]; 272.15 K, w1 = 0.0244) was 1024 ± 2 kg/m3, the mass density ([1]; 273.15 K, w1 = 0.1381) was 1132 ± 2 kg/m3 and the mass density ([1]; 283.15 K, w1 = 0.1362) was 1131 ± 2 kg/m3. For the same molecule, the mass density ([1]; 293.15 K, w1 = 0.1341) was 1128 ± 2 kg/m3, the mass density ([1]; 303.15 K, w1 = 0.1322) was 1125 ± 2 kg/m3 and the mass density ([1]; 313.15 K, w1 = 0.1304) was 1121 ± 2 kg/m3. It also gave a mass density ([1]; 323.15 K, w1 = 0.1293) of 1117 ± 2 kg/m3, a mass density ([1]; 333.15 K, w1 = 0.1292) of 1114 ± 2 kg/m3 and a mass density ([1]; 343.15 K, w1 = 0.1292) of 1111 ± 3 kg/m3. The mass density ([1]; 353.15 K, w1 = 0.1295) was 1107 ± 3 kg/m3, the mass density ([1]; 363.15 K, w1 = 0.1297) was 1103 ± 2 kg/m3 and the mass density ([1]; 373.15 K, w1 = 0.1302) was 1103 ± 2 kg/m3. For the same molecule, the mass density ([1]; 376.95 K, w1 = 0.1302) was 1103 ± 2 kg/m3.

Molecule `[Ca+2].[Cl-].[Cl-]` [calcium chloride] + O has a mass density ([1]; 273.15 K, w1 = 0.373) of 1427 ± 2 kg/m3.
